Results published in patent publication US7118759B2 (priority 2001, dated 2006).
Where two headings read alike, the source gives them in different places.

What was measured:
Type in all cases: cell-based, Staphylococcus aureus
[1] = test system: S. aureus (MN8); conditions: for Reduction of Toxin (%): vs methanol control
[2] = test system: S. aureus FRI-1187
[3] = test system: S. aureus FRI-1169

| SMILES | TSST-1 produced when compared to the control [1] | ELISA: TSST-1 ng/OD unit ([1]; 2 μg/mL test compound, 24 hours) | Reduction of Toxin (%) ([1]; 2 μg/mL test compound) | TSST-1 produced when compared to the control [2] | ELISA: TSST-1 ng/OD unit ([2]; 0.5 ug/mL triclosan) | Reduction of Toxin (%) ([1]; 0.01 μg/mL test compound) | TSST-1 produced when compared to the control [3] | ELISA: TSST-1 ng/OD unit ([3]; 0.5 μg/mL triclosan) |
| --- | --- | --- | --- | --- | --- | --- | --- | --- |
| Oc1c(Cl)cc(Cl)c(Cl)c1Cc1c(O)c(Cl)cc(Cl)c1Cl [Hexachlorophene, hexachlorophene] | significantly less TSST-1 | 330 ng/OD unit | 68% | – | – | – | – | – |
| Oc1cc(Cl)ccc1Oc1ccc(Cl)cc1Cl [Triclosan, triclosan] | significantly less TSST-1 | – | – | less TSST-1 | 95 ng/OD unit | 88% | less TSST-1 | 40 ng/OD unit |
